Key:
Type in all cases: in vivo
AMAPA [1] = experiment: Post-emergence biological efficacy; conditions: Amaranthus palmeri, 312 h, evaluated after 13 days, read-out: damage to plant (100=total damage to plant; 0=no damage to plant)
Description: (§1) Seeds of weeds and/or crops were sown in standard soil in pots. After cultivation for 14 days under controlled conditions in a glasshouse (at 24/19° C., day/night; 16 hours light), the plants were sprayed with an aqueous spray solution derived from the formulation of the technical active ingredient in a small amount of acetone and a special solvent and emulsifier mixture referred to as IF50 (11.12% Emulsogen EL360 TM+44.44% N-methylpyrrolidone+44.44% Dowanol DPM glycol ether), to create a 50g/l solution which was then diluted using 0.2% Genapol XO80 as diluent to give the desired final dose of test compound.
(§2) The test plants were then grown under controlled conditions in the glasshouse (at 24/18° C., day/night; 15 hours light; 50% humidity)and watered twice daily. After 13 days the test was evaluated (100=total damage to plant; 0=no damage to plant).

ECHCG [2] = experiment: Post-emergence biological efficacy; conditions: Echinochloa crus-galli, 312 h, evaluated after 13 days, read-out: damage to plant (100=total damage to plant; 0=no damage to plant)
Description: as §1, §2

LOLPE [3] = experiment: Post-emergence biological efficacy; conditions: Lolium perenne, 312 h, evaluated after 13 days, read-out: damage to plant (100=total damage to plant; 0=no damage to plant)
Description: as §1, §2

SETFA [4] = experiment: Post-emergence biological efficacy; conditions: Setaria faberi, 312 h, evaluated after 13 days, read-out: damage to plant (100=total damage to plant; 0=no damage to plant)
Description: as §1, §2

DIGSA = experiment: Post-emergence biological efficacy; conditions: Digitaria sanguinalis, 312 h, evaluated after 13 days, read-out: damage to plant (100=total damage to plant; 0=no damage to plant)
Description: as §1, §2

EPHHL [5] = experiment: Post-emergence biological efficacy; conditions: Euphorbia heterophylla, 312 h, evaluated after 13 days, read-out: damage to plant (100=total damage to plant; 0=no damage to plant)
Description: as §1, §2

ELEIN = experiment: Post-emergence biological efficacy; conditions: 312 h, evaluated after 13 days, read-out: damage to plant (100=total damage to plant; 0=no damage to plant)
Description: as §1, §2

IPOHE [6] = experiment: Post-emergence biological efficacy; conditions: Ipomoea hederacea, 312 h, evaluated after 13 days, read-out: damage to plant (100=total damage to plant; 0=no damage to plant)
Description: as §1, §2

CHEAL = experiment: Post-emergence biological efficacy; conditions: Chenopodium album, 312 h, evaluated after 13 days, read-out: damage to plant (100=total damage to plant; 0=no damage to plant)
Description: as §1, §2

AMAPA [7] = experiment: Pre-emergence biological efficacy; conditions: Amaranthus palmeri, 312 h, evaluated after 13 days, read-out: damage to plant (100=total damage to plant; 0=no damage to plant)
Description: as §1, with “one day” for “14 days”
(§3) The test plants were then grown under controlled conditions in the glasshouse (at 24/18° C., day/night; 15 hours light; 50% humidity) and watered twice daily. After 13 days the test was evaluated (100=total damage to plant; 0=no damage to plant).

ECHCG [8] = experiment: Pre-emergence biological efficacy; conditions: Echinochloa crus-galli, 312 h, evaluated after 13 days, read-out: damage to plant (100=total damage to plant; 0=no damage to plant)
Description: as §1, with “one day” for “14 days”
as §3

LOLPE [9] = experiment: Pre-emergence biological efficacy; conditions: Lolium perenne, 312 h, evaluated after 13 days, read-out: damage to plant (100=total damage to plant; 0=no damage to plant)
Description: as §1, with “one day” for “14 days”
as §3

SETFA [10] = experiment: Pre-emergence biological efficacy; conditions: Setaria faberi, 312 h, evaluated after 13 days, read-out: damage to plant (100=total damage to plant; 0=no damage to plant)
Description: as §1, with “one day” for “14 days”
as §3

EPHHL [11] = experiment: Pre-emergence biological efficacy; conditions: Euphorbia heterophylla, 312 h, evaluated after 13 days, read-out: damage to plant (100=total damage to plant; 0=no damage to plant)
Description: as §1, with “one day” for “14 days”
as §3

IPOHE [12] = experiment: Pre-emergence biological efficacy; conditions: Ipomoea hederacea, 312 h, evaluated after 13 days, read-out: damage to plant (100=total damage to plant; 0=no damage to plant)
Description: as §1, with “one day” for “14 days”
as §3

Compound | pest or weed control at 250 g/ha (AMAPA [1]) | pest or weed control at 250 g/ha (ECHCG [2]) | pest or weed control at 250 g/ha (LOLPE [3]) | pest or weed control at 250 g/ha (SETFA [4]) | pest or weed control at 250 g/ha (DIGSA) | pest or weed control at 250 g/ha (EPHHL [5]) | pest or weed control at 250 g/ha (ELEIN) | pest or weed control at 250 g/ha (IPOHE [6]) | pest or weed control at 250 g/ha (CHEAL) | pest or weed control at 250 g/ha (AMAPA [7]) | pest or weed control at 250 g/ha (ECHCG [8]) | pest or weed control at 250 g/ha (LOLPE [9]) | pest or weed control at 250 g/ha (SETFA [10]) | pest or weed control at 250 g/ha (EPHHL [11]) | pest or weed control at 250 g/ha (IPOHE [12])
CCOC(=O)C1(C)CC(c2cc(-c3cnc(Cl)c(Cl)c3)c(F)cc2Cl)=NO1 (stereo not drawn) [Compound 1-427, Ethyl 3-[2-chloro-5-(5,6-dichloro-3-pyridyl)-4-fluoro-phenyl]-5-methyl-4H-isoxazole-5-carboxylate] | 100% | 80% | 20% | 100% | 40% | 70% | 60% | 80% | 60% | 0% | 0% | 0% | 0% | 0% | 0%
CCOC(=O)C1(C)CC(c2cc(-c3ncc(F)cc3Cl)c(F)cc2Cl)=NO1 (stereo not drawn) [Compound 1-331, Ethyl 3-[2-chloro-5-(3-chloro-5-fluoro-2-pyridyl)-4-fluoro-phenyl]-5-methyl-4H-isoxazole-5-carboxylate] | 100% | 100% | 100% | 100% | 100% | 100% | 100% | 100% | 100% | 100% | 90% | 80% | 100% | 100% | 60%
CCOC(=O)C1(C)CC(c2cc(-c3ccnc(C(F)(F)F)c3)c(F)cc2Cl)=NO1 (stereo not drawn) [Compound 1-499, Ethyl 3-[2-chloro-4-fluoro-5-[2-(trifluoromethyl)-4-pyridyl]-phenyl]-5-methyl-4H-isoxazole-5-carboxylate] | 80% | 50% | 0% | 80% | 60% | 50% | 60% | 70% | 80% | 20% | 0% | 20% | 0% | 0% | 0%
CCOC(=O)C1(C)CC(c2cc(-c3ncc(C)cc3Cl)c(F)cc2Cl)=NO1 (stereo not drawn) [Compound 1-175, Ethyl 3-[2-chloro-5-(3-chloro-5-methyl-2-pyridyl)-4-fluoro-phenyl]-5-methyl-4H-isoxazole-5-carboxylate] | 100% | 100% | 90% | 100% | 70% | 100% | 70% | 100% | 100% | 30% | 60% | 20% | 80% | 60% | 50%
CCOC(=O)C1(C)CC(c2cc(-c3cnc(F)c(OC)c3)c(F)cc2Cl)=NO1 (stereo not drawn) [Compound 1-415, Ethyl 3-[2-chloro-4-fluoro-5-(6-fluoro-5-methoxy-3-pyridyl)-phenyl]-5-methyl-4H-isoxazole-5-carboxylate] | 100% | 70% | 20% | 90% | 40% | 90% | 70% | 90% | 100% | 0% | 0% | 0% | 0% | 0% | 0%
